{"source": "paper PMC8010149", "about": "“A Therapeutic Strategy to Combat HIV-1 Latently Infected Cells With a Combination of Latency-Reversing Agents Containing DAG-Lactone PKC Activators” (Frontiers in Microbiology, 2021)", "system": "HIV-1 in CD4+ T cells from HIV-1-infected individuals", "test": "Ex vivo reactivation, intracellular HIV-1 mRNA in primary CD4+ T cells from HIV-1-infected individuals", "assay_type": "cell-based", "settings": "10 μM YSE028, 24 h, seven individuals", "procedure": "Primary cells were isolated from seven HIV-1^+ individuals, and ex vivo reactivation experiments were conducted as previously described ([Matsuda et al., 2019]). In brief, peripheral blood samples were collected from HIV-1-infected participants receiving cART for at least 5 years (Table 1). All subjects maintained a low viral load (<20 copies/ml, except for occasional “blips”) during therapy. CD4^+ T cell counts in peripheral blood samples ranged from 477 to 992 cells/mm^3 (average: 631 cells/mm^3), and plasma viral loads were <20 copies/ml (except for one participant whose viral load was 22 copies/ml) as measured by quantitative PCR (qPCR; COBAS AmpliPrep/COBAS TaqMan HIV-1 Test version 2.0; Roche Diagnostics, Basel, Switzerland) at the time of study enrollment. The Ethics Committee at the National Center for Global Health and Medicine approved this study (NCGM-G-002259-00), and each patient provided written informed consent. […] The number of HIV-1 RNA copies was calculated using a standard curve obtained from serially diluted HIV-1pNL4-3 plasmid, and normalized values [HIV-1 RNA copies/input RNA (ng)] for each drug were compared to those without drug treatment. The relative increase in HIV-1 RNA levels in the presence of each drug or combination was then determined.", "data": [{"smiles": "CCCC(CCC)C(=O)OCC1(CO)CC(=C(C)C)C(=O)O1", "note": "(stereo not shown) [YSE028]", "values": [{"measurement": "HIV-1 mRNA compared to no drug control", "result": 1.66, "unit": "fold"}]}]}
